Common to all, as to type: in vivo
Experiment [1] relates to Silverleaf whitefly (bemisia argentifolii, adult). As to the kind of experiment: Activity against silverleaf whitefly, sprayed cotton plants. As to conditions: 72 h, whitefly adults, assessed 3 days after treatment, read-out: mortality in comparison with untreated controls. Here is the method:
II.4 Activity Against Silverleaf Whitefly (bemisia argentifolii, Adult)
(§1) The active compounds were formulated in cyclohexanone as a 10,0000 ppm solution supplied in 1.3 ml ABgene® tubes. These tubes were inserted into an automated electrostatic sprayer equipped with an atomizing nozzle and they served as stock solutions for which lower dilutions were made in 50% acetone:50% water (v/v). A nonionic surfactant (Kinetic®) was included in the solution at a volume of 0.01% (v/v).
Cotton plants at the cotyledon stage (one plant per pot) were sprayed by an automated electrostatic plant sprayer equipped with an atomizing spray nozzle. The plants were dried in the sprayer fume hood and then removed from the sprayer. Each pot was placed into a plastic cup and 10 to 12 whitefly adults (approximately 3-5 days old) were introduced. The insects were collected using an aspirator and 0.6 cm, nontoxic Tygon® tubing (R-3603) connected to a barrier pipette tip. The tip, containing the collected insects, was then gently inserted into the soil containing the treated plant, allowing insects to crawl out of the tip to reach the foliage for feeding. Cups were covered with a reusable screened lid (150-micron mesh polyester screen PeCap from Tetko, Inc.). […] Mortality was assessed 3 days after treatment, compared to untreated control plants.

Experiment [2] deals with Cotton aphid (Aphis gossypii, mixed life stages). As to the kind of experiment: Activity against cotton aphid, foliar spray on infested cotton plants. As to conditions: 120 h, determined after 5 days, read-out: mortality in comparison with untreated controls. As for the experimental part: II.1 Activity Against Cotton Aphid (Aphis gossypii, Mixed Life Stages)
as §1
Cotton plants at the cotyledon stage were infested with aphids prior to treatment by placing a heavily infested leaf from the main aphid colony on top of each cotyledon. Aphids were allowed to transfer overnight to accomplish an infestation of 80-100 aphids per plant and the host leaf was removed. The infested plants were then sprayed by an automated electrostatic plant sprayer equipped with an atomizing spray nozzle. The plants were dried in the sprayer fume hood, removed from the sprayer, and then maintained in a growth room under fluorescent lighting in a 24-hr photoperiod at 25° C. and 20-40% relative humidity. Aphid mortality on the treated plants, relative to mortality on untreated control plants, was determined after 5 days.

For experiment [3], the system named is Cowpea aphid (Aphis craccivora). As to the kind of experiment: Activity against cowpea aphid, spray on potted cowpea plants. To be noted: spray on colonized cowpea plants, population reduction assessed after 24, 72 and 120 hours, read-out: mortality in comparison with untreated controls. As for the experimental part: II.3 Activity Against Cowpea Aphid (Aphis craccivora)
The active compounds were formulated in 50:50 (vol:vol) acetone:water. The test solution was prepared at the day of use.
Potted cowpea plants colonized with 100-150 aphids of various stages were sprayed after the pest population had been recorded. Population reduction was assesed after 24, 72, and 120 hours.

For experiment [4], the system named is Green peach aphid (Myzus persicae, mixed life stages). The experiment is described as follows: Activity against green peach aphid, foliar spray on infested bell pepper plants. To be noted: 120 h, determined after 5 days, read-out: mortality in comparison with untreated controls. As for the experimental part:
II.2 Activity Against Green Peach Aphid (Myzus persicae, Mixed Life Stages)
as §1
Bell pepper plants at the first true-leaf stage were infested prior to treatment by placing heavily infested leaves from the main colony on top of the treatment plants. Aphids were allowed to transfer overnight to accomplish an infestation of 30-50 aphids per plant and the host leaves were removed. The infested plants were then sprayed by an automated electrostatic plant sprayer equipped with an atomizing spray nozzle. The plants were dried in the sprayer fume hood, removed, and then maintained in a growth room under fluorescent lighting in a 24-hr photoperiod at 25° C. and 20-40% relative humidity. Aphid mortality on the treated plants, relative to mortality on untreated control plants, was determined after 5 days.

Experiment [5] deals with Green peach aphids (Myzus persicae). As to the kind of experiment: Hydroponic test against green peach aphids, bare-root green pepper plants. To be noted: bare roots immersed 24 hours, assay 3 days, read-out: mortality in comparison with untreated controls. As for the experimental part:
II.7.1 Activity in the Hydroponic Tests Against Green Peach Aphids (Myzus persicae)
Green pepper plants (Capsicum annuum L., variety ‘California Wonder’) are grown in the greenhouse from seed to the second true leaf stage (BBCH 12) in Scott's MetroMix® 360 (1-2 plants per 2¼″ square pot). Cotyledon leaves are removed and roots are rinsed in tap water until free of soil. The roots are kept moist under a layer of wet paper toweling until all plants have been prepared.
(§2) A 3,400 ppm stock solution is prepared of each test compound using reagent grade acetone as the solvent. Subsequent dilutions of 100 and 10 ppm are prepared from this stock with final dilutions in deionized water in 100 ml amber glass bottles. One bare root plant is placed in each bottle using a foam plug section to centrally secure the stem in the bottleneck. The bare roots are fully-immersed in the test suspensions. Host plants are placed in a plant growth room under continuous GroLux® fluorescent lighting (40W), for 24 hours at 25±2° C. and 20-40% RH.
After exposure of the bare roots to the test suspensions, pieces of pepper plants infested with green peach aphid (Myzus persicae) are placed on top of the test foliage. Insects are allowed to transfer from the host leaves to accomplish an infestation of 40-50 insects per plant. […] Phytotoxic responses of the host plants are also recorded at this time.

Experiment [6] concerns Vetch aphid (Megoura viciae). As to the kind of experiment: Activity against vetch aphid, bean leaf disks in microtiterplates. To be noted: foliar, 144 h, test solution 2500 mg/L, 2.5 μl sprayed on bean leaf disks, 6 days. As for the experimental part:
II.5 Activity Against Vetch Aphid (Megoura viciae)
The active compounds were formulated in 1:3 (vol:vol) DMSO: water with different concentrations of formulated compounds.
Bean leaf disks were placed into microtiterplates filled with 0.8% agar-agar and 2.5 ppm OPUS™. The leaf disks were sprayed with 2.5 μl of the test solution and 5 to 8 adult aphids were placed into the microtiterplates which were then closed and kept at 23±1° C. and 50±5% relative humidity under fluorescent light for 6 days. Mortality was assessed on the basis of vital, reproduced aphids. Aphid mortality and fecundity was then visually assessed.

The test system of experiment [7] is Green peach aphid (Myzus persicae). As to the kind of experiment: Activity against green peach aphid through systemic means, artificial diet in 96-well microtiter plates. As to conditions: 72 h, read-out: mortality in comparison with untreated controls. The source says: II.6 Activity Against Green Peach Aphid (Myzus persicae)
For evaluating control of green peach aphid (Myzus persicae) through systemic means the test unit consisted of 96-well-microtiter plates containing liquid artificial diet under an artificial membrane.
The compounds were formulated using a solution containing 75% v/v water and 25% v/v DMSO. Different concentrations of formulated compounds were pipetted into the aphid diet, using a custom built pipetter, at two replications. After application, 5 to 8 adult aphids were placed on the artificial membrane inside the microtiter plate wells. The aphids were then allowed to suck on the treated aphid diet and incubated at about 23+1° C. and about 50+5% relative humidity for 3 days. Aphid mortality and fecundity was then visually assessed.

Experiment [8] has as its system Vanda/Orchid thrips (Dichromothrips corbetti). The experiment is described as follows: Activity against Vanda/orchid thrips, petal dip. As to conditions: orchid petals dipped, recorded after 72 hours, read-out: mortality in comparison with untreated controls. Here is the method:
II.7 Activity Against Vanda/Orchid Thrips (Dichromothrips corbetti)
The active compounds were formulated as a 50:50 (vol:vol) acetone:water solution. Surfactant (Alkamuls EL 620) was added at the rate of 0.1% (vol/vol). Vanda orchids petals were cleaned, washed and air dried prior to spraying. Petals were dipped into the test solution for 3 seconds, air dried, placed inside a resealable plastic and inoculated with 20 adults. The treated petals were kept inside the holding room at 28-29° C. and relative humidity of 50-60%. Percent mortality was recorded after 72 hours.

Experiment [9] relates to Cotton aphids (Aphis gossypii). As to the kind of experiment: Hydroponic test against cotton aphids, bare-root cotton plants. As to conditions: bare roots immersed 24 hours, assay 3 days, read-out: mortality in comparison with untreated controls. Here is the method:
II.8 Activity in the Hydroponic Tests against Cotton Aphids (Aphis gossypii)
Cotton plants (Gossypium hirsutum, variety ‘Sure Grow 747’) are grown in the greenhouse from seed to the second true leaf stage (BBCH 12) in Scott's Metro-Mix® 360 (1-2 plants per 2¼″ square pot). Cotyledon leaves are removed and roots are rinsed in tap water until free of soil. The roots are kept moist under a layer of wet paper toweling until all plants have been prepared.
as §2
After exposure of the bare roots to the test suspensions, pieces of cotton plants infested with cotton aphids (Aphis gossypii) are placed on top of the test foliage. Insects are allowed to transfer from the host leaves to accomplish an infestation of 40-50 insects per plant. […] Phytotoxic responses of the host plants are also recorded at this time.

For orientation: mortality means the share of the test organisms that died. Turning to `O=C(Nc1ccnnc1)c1conc1C1CC1` [Compound 4, 3-Cyclopropyl-isoxazole-4-carboxylic acid pyridazin-4-ylamide], the mortality at 300 ppm in experiment [1] is ≥ 75%; in [2] it was ≥ 75%; in [3], ≥ 90%; in [4] it was ≥ 75%. Moreover, the mortality at 100 ppm in experiment [5] and in experiment [9] was ≥ 75% throughout. Besides, the mortality at 2500 µg/mL in experiment [6] is ≥ 90%. In addition, the mortality at 2500 ppm in [7] was 100%. Moreover, the mortality at 500 ppm in experiment [8] is ≥ 50%.

As for `CN(C(=O)c1conc1C1CC1)c1ccnnc1` [Compound 5, 3-Cyclopropyl-isoxazole-4-carboxylic acid methyl-pyridazin-4-yl-amide], the mortality at 300 ppm is ≥ 75% in experiment [1], ≥ 75% in experiment [2], ≥ 90% in experiment [3] and ≥ 75% in experiment [4]. For the same molecule, the mortality at 100 ppm in experiment [5] and in [9] was ≥ 75% each time. Moreover, in experiment [6], the mortality at 2500 µg/mL was ≥ 90%. The mortality at 2500 ppm in [7] was determined as 100%. Besides, the mortality at 500 ppm in [8] is ≥ 50%.

These data come from patent US8710056B2, “Pyridazine compounds for controlling invertebrate pests” (BASF SE, priority 2009, dated 2014).
